For series [1], the system named is GL26 cells overexpressing PD-L1. Nature of the series: In vitro binding to GL26 glioma cells. The class given is cell-based, mouse. As to conditions: 4° C., 1 h; compared to wFTH. As for the experimental part:
(§1) Mouse glioma cells, CT-2A or GL26 cells, were treated with PpNF or wild-type ferritin (wFTH) at 4° C. for 1 h; binding was monitored by antiferritin antibody (green). Nuclei were visualized by counterstaining with DAPI (blue). Scale bars: 30 μm.

In the next series the test system is GL26 glioblastoma. As to conditions: mouse, in vivo. As for the experimental part:
In addition, the glioblastoma targeting effect of the immune checkpoint blocking nanocage was identified. GL26, a glioblastoma cell line, was injected into the left side of the mouse brain to create an orthotopic GBM model and fluorescently labeled PBP1-N-FtH was injected into the tail vein [control: saline, ferritin].

Series [2] concerns MDA-MB231 cells expressing PD-L1. Nature of the series: Culture cell binding assay (confocal) on MDA-MB231 cells. The series is classed as cell-based. Particulars: 100 nM, 4° C., 1 hour; anti-human ferritin heavy chain antibody staining. As for the experimental part:
(§2) Confocal laser scanning microscopy (Confocal) was performed. After culturing triple negative breast cancer cells (MDA-MB 231) or colorectal cancer cells (CT26), a group treated with 25 ng/ml of interferon-γ and a group without treatment were cultured at 37° C. for 24 hours. These cells are cancer cells expressing the PD-L1 receptor and are known to have expression increased upon interferon-γ treatment. […] In order to block nonspecific binding of PD-L1 proteins, blocking was performed using 1% BSA dissolved in PBS at room temperature for 1 hour, then BSA was removed, and PpNF, PpLF, and PpCF (100 nM) were reacted at 4° C. for 1 hour. After washing with PBS, a reaction was performed using anti-human ferritin heavy chain antibodies (1:200 ratio) for 1 hour, followed by staining (green). After fixing with 4% paraformaldehyde, observation was performed under a confocal microscope. To observe the nucleus, DAPI was dissolved in PBS in a ratio of 1:1000, and staining was performed at room temperature for 5-10 minutes (blue).

Series [3] in a line: Biotoxicity via blood and serologic analysis. The series is classed as in vivo, mice. Here is the method: After antitumor animal experiments, blood and serum were collected from each group when sacrificing mice, and the amounts of red blood cells, hemoglobin, hematocrit, white blood cells, and neutrophils in the blood, blood urea nitrogen in serum, creatinine, alanine aminotransferase, and aspartate aminotransferase were measured and compared.

Series [4] relates to MCF-7 cells that do not express PD-L1. Nature of the series: Culture cell binding assay (confocal) on MCF-7 control cells. The series is classed as cell-based. As to conditions: 100 nM, 4° C., 1 hour; PD-L1-negative control cells.
Series [5] deals with CD8+ T cells cocultured with CT-2A. Kind of series: Triple coculture of CD8+ T cells with CT-2A glioma cells and primary glia. The series is classed as cell-based, mouse. As to conditions: 25 nM, 48 h triple coculture. As for the experimental part:
CD8^+ T cells were directly cocultured with CT-2A (A,B) or GL26 (C, D) glioma cells in the presence of glia. Cocultures were treated with 25 nM wild-type nanocage (wFTH), PD-L1pep1 ferritin nanocage (PpNF) or their corresponding buffer (buf), respectively. Fold changes in IFN-γ secretion during triple coculture using (A) CT-2A or (C) GL26 cells with the indicated treatments. T cell-only group was used as a control. (B) Proliferation of CD8^+ T cells during coculture with CT-2A and primary glia. The percentages of daughter cells upon cell division were determined using CellTrace Violet (CTV) dye. (D) Expression of CD107a on the surface of CD8^+ T cells after triple coculture using GL26. The percentages of CD107a^+ populations in live CD8^+ T cells were measured by flow cytometry. All graphs represent mean±SD; n=3 independent wells. […]
(§3) Cocultures were treated with 25 nM ferritin nanocages (PpNF or Pp2NF) including the wild-type nanocage (wFTH) or their corresponding buffer, respectively. […] IFN-γ concentrations were quantified with a mouse IFN-γ ELISA kit (R&D Systems Inc., SMIF00) as previously described. […]
Annexin-V as described above. The percentages of CTV dilution upon cell division were measured by flow cytometry. All flow cytometry data were obtained using a BD FACS Verse cytometer and analyzed by FlowJo software (Tree Star).

For series [6], the system named is CT-2A glioma. Kind of series: Antitumor activity in orthotopic CT-2A glioma mouse model. The class given is in vivo, C57BL/6 mice. Particulars: 5 mg/kg intravenously three times per week, six injections. As for the experimental part:
(A) Experimental scheme for antitumor treatments. CT-2A syngeneic mouse brain tumor cells were implanted into the brains of C57BL/6 mice. Treatments were initiated at 7 days after confirming tumor growth by MRI. PpNF (5 mg/kg, n=3) or wFTH (5 mg/kg, n=3) were intravenously injected three times per week. (B) Representative brain MRI images showing tumor growth at 7, 14, and 21 days. The dotted line indicates the tumor region. (C) Tumor volumes measured by MRI. (D) Body weights. Data represent mean±SEM (*p<0.05; t-test). The data presented are representative of three independent experiments. B6 mice aged 6-8 weeks were anesthetized with an intraperitoneal injection of Zoletil 50 (20 mg/kg, Virba) and Rompun (4 mg/kg, Bayer). For stereotactic intracranial injections of CT-2A cells, the surgical site was shaved and prepared with 70% ethyl alcohol. After disinfection and incision of the skin, tumor cells were stereotaxically implanted in the brain using the following coordinates: AP=+0.2 mm; ML=+2 mm; DV=−3 mm from the bregma. CT-2A cells (10^4 cells) were resuspended in 3 μl of PBS and implanted at an infusion rate of 3 μl/5 min. […] Tumor growth was examined by animal MRI (7T BioSpec 70/20USR) in the tumor-bearing mice using Onis 2.5 viewer software, and tumor volume was calculated (Average tumor cross-sectional area (mm^2)×summed thickness of tumor cross-sections (mm).

A further series relates to CT26 tumor. The class given is in vivo, BALB/c wildtype mice. As for the experimental part:
CT26 cells were injected subcutaneously into the upper right thigh of BALB/c wildtype mice. When the tumor was about 100 mm^3 in size, mice were randomly divided into four groups. […] A total of 10 injections were performed once every two days (once every 4 days, repeated 6 times in total for anti-PD-L1 antibodies) to measure tumor size and weight of mice (FIGS. 7B and 7D). After 3 weeks, the tumor was removed by sacrificing mice and the tumor was weighed (FIG. 7C). The extracellular matrix of the removed tumor was degraded with collagenase to form single cells, and antibodies against labeled proteins of CD4^+ T cells, CD8^+ T cells, and regulatory T cells were each treated to analyze how many T cells are each present in the tumor by flow cytometry (FIGS. 7E to 7G).

Series [7] concerns CD8+ T cells cocultured with GL26. Nature of the series: Triple coculture of CD8+ T cells with GL26 glioma cells and primary glia. As to conditions: 25 nM, 48 h triple coculture, IFN-γ secretion, CD107a. The class given is cell-based, mouse. As for the experimental part:
CD8^+ T cells were directly cocultured with CT-2A (A,B) or GL26 (C, D) glioma cells in the presence of glia. Cocultures were treated with 25 nM wild-type nanocage (wFTH), PD-L1pep1 ferritin nanocage (PpNF) or their corresponding buffer (buf), respectively. Fold changes in IFN-γ secretion during triple coculture using (A) CT-2A or (C) GL26 cells with the indicated treatments. T cell-only group was used as a control. (B) Proliferation of CD8^+ T cells during coculture with CT-2A and primary glia. The percentages of daughter cells upon cell division were determined using CellTrace Violet (CTV) dye. (D) Expression of CD107a on the surface of CD8^+ T cells after triple coculture using GL26. The percentages of CD107a^+ populations in live CD8^+ T cells were measured by flow cytometry. All graphs represent mean±SD; n=3 independent wells. (*p<0.05, **p<0.01, ***p<0.001, and ****p<0.0001; multiple comparisons were conducted using one-way ANOVA followed by Tukey's test.)
Primary glia were cultured from C57BL/6 mice, and the cells were seeded in a 96-well flat bottom plate at a density of 10^4 cells/well. […]
as §3

The subject of series [8] is CT-2A cells overexpressing PD-L1. Kind of series: In vitro binding to CT-2A glioma cells. The series is classed as cell-based, mouse. Particulars: 4° C., 1 h; compared to wFTH. As for the experimental part:
as §1

Series [9] in a line: Dynamic light scattering (DLS) analysis of cage size. The series is classed as physicochemical.
Another series concerns the target T1, PD-1/PD-L1 binding (Mus musculus, UniProt Q9EP73).
T1 construct: endogenous in cells
Kind of series: Co-culture of CT26 cancer cells and activated CD8+ T cells (immune checkpoint inhibitory function in vitro). The class given is cell-based. Here is the method: CD8^+ T cells were extracted from the spleen obtained by sacrificing BALB/C mice. Extracted CD8^+ T cells were treated with interleukin-2/interleukin-15 and anti-CD-3 antibody/anti-CD-28 antibody each for 24 hours for activation. Prior to treating activated CD8^+ T cells with CFSE and performing symbiotic culture of tumor cells (CT26, mouse colon cancer), tumor cells were pretreated with anti-PD-L1 antibody, PpNF (25 nM or 50 nM), and PD-L1pep1 (50 nM), respectively, and interactions of PD-L1 of tumor cells and […] CD8^+ T cells were inhibited, respectively. After symbiotic culture for 24 hours, CD8^+ T cells were isolated (FIG. 4A). The degree of CFSE binding to isolated T cells was measured with a flow cytometer (FIG. 4B). In addition, the amount of interferon gamma secreted by isolated T cells was measured using an enzyme-linked immunosorbent assay (FIG. 4C).
CD8^+ T cells isolated from mice were activated (IL-2/IL-15 treatment and anti-CD3/anti-CD28 treatment), labeled with fluorescence (CFSE staining), and cultured with CT26 colorectal cancer cells.

Series [10] concerns CT26 cells expressing PD-L1. Kind of series: Culture cell binding assay (confocal) on CT26 cells. The class given is cell-based, mouse. Particulars: 100 nM, 4° C., 1 hour; anti-human ferritin heavy chain antibody staining. Here is the method: as §2
For series [11], the system named is CT-2A glioma. On the set-up: species or system C57BL/6 mice. Particulars: mouse, in vivo, iv. Here is the method: (A) Representative images of the upper body of mice. The yellow circle indicates the tumor. C57BL/6 mice were implanted with CT-2A glioma cells (3×10^5). At 14 days after intracranial inoculation, the tumor-bearing mice were intravenously injected with Flamma 675-labeled PpNF or wFTH followed by in vivo scanning with the IVIS imaging system. (B) Ex vivo biodistribution was examined at 24 h postinjection.
B6 mice aged 6-8 weeks were anesthetized with an intraperitoneal injection of Zoletil 50 (20 mg/kg, Virba) and Rompun (4 mg/kg, Bayer). For stereotactic intracranial injections of CT-2A cells, the surgical site was shaved and prepared with 70% ethyl alcohol. After disinfection and incision of the skin, tumor cells were stereotaxically implanted in the brain using the following coordinates: AP=+0.2 mm; ML=+2 mm; DV=−3 mm from the bregma. CT-2A cells (10^4 cells) were resuspended in 3 μl of PBS and implanted at an infusion rate of 3 μl/5 min.
For in vivo targeting of PD-L1pep ferritin nanocages in intracranial brain tumors, CT-2A cells (3×10^5 cells) were resuspended in 3 μl of PBS and implanted in the brain. At 14 days after implantation of CT-2A cells, Flamma 675-labeled Pp1NF, Pp2NF, and wt ferritin were intravenously injected (n=3 mice/group). […] Fluorescence emission values were analyzed as photons per second per centimeter squared per steradian (p/s/cm^2/sr).

T1 sequence (Q9EP73 19-290): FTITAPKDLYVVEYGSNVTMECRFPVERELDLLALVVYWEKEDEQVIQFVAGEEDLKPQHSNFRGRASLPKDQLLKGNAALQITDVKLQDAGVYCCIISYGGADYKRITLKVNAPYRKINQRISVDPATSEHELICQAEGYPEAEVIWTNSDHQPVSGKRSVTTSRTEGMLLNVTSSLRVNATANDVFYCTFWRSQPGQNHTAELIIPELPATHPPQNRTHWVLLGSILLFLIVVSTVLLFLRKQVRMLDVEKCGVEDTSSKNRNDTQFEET

For the substance “PpNF: Ferritin nanocage: PD-L1-binding peptide 1 (CLQKTPKQC) inserted at nitrogen terminal of human ferritin heavy chain fragment (1-161) with GG linker”, in [1], the “binding in GL26 glioma cells” value is “bound specifically”. Besides, in the series with GL26 glioblastoma, the “glioblastoma targeting (brain fluorescence signal)” value is “targeted to the tumor site on the left side of the brain”. The “binding in MDA-MB231 cells” value in series [2] is given as “bound”. Besides, in series [3] (blood after antitumor animal experiments), the hematologic change entry is on record as “no significant hematologic change”. In addition, the “hepatotoxicity or nephrotoxicity (BUN, creatinine, ALT, AST)” value in [3] (serum after antitumor animal experiments) is on record as “No hepatotoxicity or nephrotoxicity was observed”. Also, the “binding in MCF-7 cells” value in [4] is “the binding did not take place”. Also, the “proliferation of CD8+ T cells” value in series [5] (CTV dye) is on record as “increased”. Also, the “activity of CD8+ T cells” value in series [5] (IFN-γ secretion) is recorded as “increased”. The “antitumor effects (tumor volume by MRI)” value with CT-2A glioma [6] is “showed antitumor effects”. Further, the tumor growth result in the series with CT26 tumor (10 mg/kg tail vein, 10 injections once every two days) is given as “significantly inhibited tumor growth compared to the control”. In addition, the “weight of the tumor” value in the series on CT26 tumor (after 3 weeks) is on record as “much smaller”. For the same substance, in the series on CT26 tumor (flow cytometry), the “proportion of CD8+ T cells in the tumor” value is recorded as “increasing the proportion of CD8^+ T cells in the tumor”; the “ratio of CD8+ T cells and regulatory T cells in the tumor” value is “significantly increased compared to the control”. Also, the “activity of CD8+ T cells” value in series [7] is listed as “increased”. In series [8], the “binding in CT-2A glioma cells” value was “bound specifically”. Also, the “cage size (DLS)” value in [9] is reported as “about 24 nm”. Moreover, the “IFN-γ secreted by T cells (ELISA)” value with PD-1/PD-L1 binding (24 hours co-culture, PpNF 25 nM or 50 nM) is on record as “IFN-γ increment”. Also, in the series with PD-1/PD-L1 binding (versus PD-L1 antibody, PD-L1pep1 (50 nM)), the “immune checkpoint inhibitory effect versus comparators” value was “better than that of PD-L1 antibody or PD-L1pep1”. For the same substance, the “binding in CT26 cells” value in series [10] is “bound”. In the series with CT-2A glioma [11], the BBB crossing entry was “crossed the BBB” and the “accumulation in glioblastoma in the brain” value is recorded as “accumulated in glioblastoma expressed in the brain by 24 hours”.
